Measurements taken from ChEMBL document CHEMBL3867461, “Design, synthesis, and evaluation of (2S,4R)-Ketoconazole sulfonamide analogs as potential treatments for Metabolic Syndrome” (Bioorg Med Chem Lett, 2016).

Key:
Assay type in all cases: ADME, organism-based, Cavia porcellus
Details in all cases: in vivo
[1] = Cmax in Hartley guinea pig at 1 mg/kg, iv administered as single dose; parameters: dose 1 mg/kg, route intravenous
[2] = Tmax in Hartley guinea pig at 1 mg/kg, iv administered as single dose
[3] = Volume of distribution in Hartley guinea pig at 1 mg/kg, iv administered as single dose
[4] = AUC (0 to infinity) in Hartley guinea pig at 1 mg/kg, iv administered as single dose; parameters: dose 1 mg/kg, route intravenous, time infinity
[5] = Cmax in Hartley guinea pig at 10 mg/kg, po administered as single dose; parameters: dose 10 mg/kg, route oral
[6] = Tmax in Hartley guinea pig at 10 mg/kg, po administered as single dose
[7] = AUC (0 to infinity) in Hartley guinea pig at 10 mg/kg, po administered as single dose; parameters: dose 10 mg/kg, route oral, time infinity
[8] = Oral bioavailability in Hartley guinea pig at 10 mg/kg

SMILES	Cmax [1]	Tmax [2]	Vd [3]	AUC(0-inf) [4]	Cmax [5]	Tmax [6]	AUC(0-inf) [7]	bioavailability [8]
CC(C)S(=O)(=O)N1CCN(c2ccc(OC[C@@H]3CO[C@@](Cn4ccnc4)(c4ccc(Cl)cc4Cl)O3)cc2)CC1	534 ng/mL	11.4 min	3 L/kg	547 ng·h/mL	358 ng/mL	40.2 min	571 ng·h/mL	10.4%
CCS(=O)(=O)N1CCN(c2ccc(OC[C@@H]3CO[C@@](Cn4ccnc4)(c4ccc(Cl)cc4Cl)O3)cc2)CC1	446 ng/mL	6 min	4.4 L/kg	560 ng·h/mL	710 ng/mL	70.2 min	3710 ng·h/mL	61.4%
O=S(=O)(C1CC1)N1CCN(c2ccc(OC[C@@H]3CO[C@@](Cn4ccnc4)(c4ccc(Cl)cc4Cl)O3)cc2)CC1	514 ng/mL	4.8 min	2.9 L/kg	715 ng·h/mL	1560 ng/mL	90 min	7580 ng·h/mL	98.5%
N#CCS(=O)(=O)N1CCN(c2ccc(OC[C@@H]3CO[C@@](Cn4ccnc4)(c4ccc(Cl)cc4Cl)O3)cc2)CC1	2090 ng/mL	4.8 min	2.5 L/kg	1160 ng·h/mL	1970 ng/mL	40.2 min	4600 ng·h/mL	39.5%
